Data on 48 compounds can be found in patent US11384079B2, “6-5 fused rings as C5a inhibitors” (CHEMOCENTRYX, INC., priority 2017, dated 2022).

Bounds are passed on as bounds.

Usually IC50 stands for the concentration at which inhibition is half-maximal.

The assay deals with T1, C5aR (Homo sapiens, UniProt P21730).
T1 construct: U937 cells are a monocytic cell line which express C5aR; host or cells: U937 cells (cAMP treated) or isolated neutrophils
T1 sequence (P21730 1-350): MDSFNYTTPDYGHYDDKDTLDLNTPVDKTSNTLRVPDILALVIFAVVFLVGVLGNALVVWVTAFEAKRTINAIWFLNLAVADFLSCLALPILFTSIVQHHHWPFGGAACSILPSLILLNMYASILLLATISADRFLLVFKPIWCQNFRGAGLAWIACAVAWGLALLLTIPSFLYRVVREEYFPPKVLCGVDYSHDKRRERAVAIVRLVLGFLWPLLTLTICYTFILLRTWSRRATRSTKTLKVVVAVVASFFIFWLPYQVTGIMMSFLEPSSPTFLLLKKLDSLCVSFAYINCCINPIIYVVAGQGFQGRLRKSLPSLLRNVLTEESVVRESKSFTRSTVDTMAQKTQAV
Briefly: chemotaxis assay (C5aR mediated migration). In kind it is cell-based. The following applies: migration of U937 or neutrophil cells toward C5a (0.03 nM), 1.5 hours at 37° C., read-out: Mig IC50. The protocol: U937 cells are a monocytic cell line which express C5aR, and are available from ATCC (VA). […] Cells were grown under 5% CO2/95% air, 100% humidity at 37° C. and subcultured twice weekly at 1:6 (cells were cultured at a density range of 1×10^5 to 2×10^6 cells/mL) and harvested at 1×10^6 cells/mL. Prior to assay, cells are treated overnight with 0.5 mM of cyclic AMP (Sigma, Ohio) and washed once prior to use. cAMP treated U937 cells can be used in C5aR ligand binding and functional assays.
Optionally, human or murine neutrophils can be used to assay for compound activity. Neutrophils may be isolated from fresh human blood using density separation and centrifugation. Briefly, whole blood is incubated with equal parts 3% dextran and allowed to separate for 45 minutes. After separation, the top layer is layered on top of 15 mls of Ficoll (15 mls of Ficoll for every 30 mls of blood suspension) and centrifuged for 30 minutes at 400×g with no brake. The pellet at the bottom of the tube is then isolated and resuspended into PharmLyse RBC Lysis Buffer (BD Biosciences, San Jose, Calif.) after which the sample is again centrifuged for 10 minutes at 400×g with brake. The remaining cell pellet is resuspended as appropriate and consists of isolated neutrophils.
Optionally, compounds may be further assayed for their ability to inhibit chemotaxis in cells. Chemotaxis assays are performed using 5 μm pore polycarbonate, polyvinylpyrrolidone-coated filters in 96-well chemotaxis chambers (Neuroprobe; Gaithersburg, Md.) using chemotaxis buffer (Hank's balanced salt solution (HBSS) and 1% FBS). C5aR ligands (i.e., C5a, R&D Systems; Minneapolis, Minn.) are use to evaluate compound mediated inhibition of C5aR mediated migration. Other chemokines (i.e., SDF-1α; R&D Systems; Minneapolis, Minn.) are used as specificity controls. […] The chambers are incubated 1.5 hours at 37° C., and the number of cells in the lower chamber quantified either by direct cell counts in five high powered fields per well or by the CyQuant assay (Molecular Probes), a fluorescent dye method that measures nucleic acid content and microscopic observation.
On to `CCc1cccc(CC)c1-n1nc2c(c1-c1cc(Cl)cc3[nH]cnc13)CN(c1ncc(C(F)(F)F)cn1)CC2` [Example 1.025], for which the IC50 lay within 50 to 500 nM. For the compound `CCc1cccc(CC)c1-n1nc2c(c1-c1ncnc3[nH]ccc13)CN(c1ncc(C(F)(F)F)cn1)CC2` [Example 1.026], the 50% inhibitory concentration (IC50) lay in the range of 5 to 50 nM. For `CCc1cccc(CC)c1-n1nc2c(c1-c1cnc(C)c3[nH]ccc13)CN(c1ncc(C(F)(F)F)cn1)CC2` [Example 1.027] the value was 5 to 50 nM; for `CCc1cccc(CC)c1-n1nc2c(c1-c1cc(F)c(OC)c3[nH]c(CO)nc13)CN(c1ncc(C(F)(F)F)cn1)CC2` [Example 1.028], > 500 nM. For `CCc1cccc(CC)c1-n1nc2c(c1-c1ccnc3[nH]ccc13)CN(c1ncc(C(F)(F)F)cn1)CC2` [Example 1.029] the value was 5 to 50 nM; for `CCc1cccc(CC)c1-n1nc2c(c1-c1cc(F)c(CO)c3[nH]cnc13)CN(c1ncc(C(F)(F)F)cn1)CC2` [Example 1.030], < 5 nM; for `CCc1cccc(CC)c1-n1nc2c(c1-c1nccc3[nH]ccc13)CN(c1ncc(C(F)(F)F)cn1)CC2` [Example 1.031], 5 to 50 nM. For `CCc1cccc(CC)c1-n1nc2c(c1-c1cc(F)c(OC)c3[nH]cc(Cl)c13)CN(c1ncc(C(F)(F)F)cn1)CC2` [Example 1.032] the value was < 5 nM; for `CCc1cccc(CC)c1-n1nc2c(c1-c1cc(F)c(OC)c3[nH]ccc13)C(=O)N(c1ncc(C(F)(F)F)cn1)CC2` [Example 1.033], 50 to 500 nM. With `CCc1cccc(CC)c1-n1nc2c(c1-c1ccc(Cl)c3[nH]ccc13)C(=O)N(c1ncc(C(F)(F)F)cn1)CC2` [Example 1.034], the IC50 was > 500 nM. As for `CCc1cccc(CC)c1-n1nc2c(c1-c1ccc(Cl)c3[nH]cnc13)CN(c1ncc(C(F)(F)F)cn1)CC2` [Example 1.035], the IC50 was < 5 nM. In the case of `CCc1cccc(CC)c1-n1nc2c(c1-c1cc(F)c(OC)c3[nH]cnc13)CN(c1ncc(C(F)(F)F)cn1)CC2` [Example 1.036], the IC50 was < 5 nM. For `CCc1cccc(CC)c1-n1nc2c(c1-c1ccc3[nH]c(C)nc3c1Cl)CN(c1ncc(C(F)(F)F)cn1)CC2` [Example 1.037] the value was 5 to 50 nM; for `CCc1cccc(CC)c1-n1nc2c(c1-c1ccc(Cl)c3[nH]c(C)nc13)CN(c1ncc(C(F)(F)F)cn1)CC2` [Example 1.038], 5 to 50 nM.

For `CCc1cccc(CC)c1-n1nc2c(c1-c1ccc3[nH]ccc3c1)CN(c1ncc(C(F)(F)F)cn1)CC2` [Example 1.039], the IC50 lay in the range of 5 to 50 nM. Consider `CCc1cccc(CC)c1-n1nc2c(c1-c1cccc3[nH]ccc13)CN(c1ncc(C(F)(F)F)cn1)CC2` [Example 1.040], for which the IC50 is 5 to 50 nM. Next, `CCc1cccc(CC)c1-n1nc2c(c1-c1cc(F)c(Cl)c3[nH]ncc13)CN(c1ncc(C(F)(F)F)cn1)CC2` [Example 1.041]: < 5 nM; `CCc1cccc(CC)c1-n1nc2c(c1-c1cccc3[nH]c(C(F)(F)F)nc13)CN(c1ncc(C(F)(F)F)cn1)CC2` [Example 1.042]: 50 to 500 nM; `CCc1cccc(CC)c1-n1nc2c(c1-c1cccc3[nH]cnc13)CN(c1ncc(C(F)(F)F)cn1)CC2` [Example 1.043]: 5 to 50 nM.

As for `CCc1cccc(CC)c1-n1nc2c(c1-c1cc(Cl)c(OC)c3[nH]ccc13)CN(c1ncc(C(F)(F)F)cn1)CC2` [Example 1.044], the IC50 was < 5 nM.

For the compound `CCc1cccc(CC)c1-n1nc2c(c1-c1c(F)cc(OC)c3[nH]ccc13)CN(c1ncc(C(F)(F)F)cc1F)CC2` [Example 1.045], the half-maximal inhibitory concentration (IC50) is < 5 nM. Next, `CCc1cccc(CC)c1-n1nc2c(c1-c1c(F)cc(OC)c3[nH]ccc13)CN(c1ncc(C(F)(F)F)cn1)CC2` [Example 1.046]: < 5 nM; `CCc1cccc(CC)c1-n1nc2c(c1-c1ccc(C(=O)N(C)C)c3[nH]ccc13)CN(c1ncc(C(F)(F)F)cn1)CC2` [Example 1.047]: 50 to 500 nM. Turning to `CCc1cccc(CC)c1-n1nc2c(c1-c1c(F)cc(Cl)c3[nH]ccc13)CN(c1ncc(OC(C)C)cn1)CC2` [Example 1.048], the IC50 was < 5 nM. Next, `Cc1cccc(C)c1-n1nc2c(c1-c1ccc(Cl)c3[nH]ncc13)CN(c1ncc(C(F)(F)F)cn1)CC2` [Example 1.049]: 5 to 50 nM. For `CCc1cccc(CC)c1-n1nc2c(c1-c1cc(F)c(OC)c3[nH]ccc13)CN(c1ncc(C3CC3)cn1)CC2` [Example 1.050] the value was < 5 nM. For `CCc1cccc(CC)c1-n1nc2c(c1-c1cc(F)c(OC)c3[nH]ncc13)CN(c1ncc(C(F)(F)F)cc1F)CC2` [Example 1.051] the value was < 5 nM; for `CCc1cccc(CC)c1-n1nc2c(c1-c1ccc(OC)c3[nH]ncc13)CN(c1ncc(C(F)(F)F)cc1F)CC2` [Example 1.052], 5 to 50 nM; for `CCc1cccc(CC)c1-n1nc2c(c1-c1ccc(OC)c3[nH]ncc13)CN(c1ncc(C(F)(F)F)cn1)CC2` [Example 1.053], < 5 nM. As to `CCc1cccc(CC)c1-n1nc2c(c1-c1cc(F)c(OC)c3[nH]ccc13)CN(c1ncc(OC(C)C)cn1)CC2` [Example 1.054], the 50% inhibitory concentration (IC50) is < 5 nM. Next, `CCc1cccc(CC)c1-n1nc2c(c1-c1c(F)cc(Cl)c3[nH]ccc13)CN(c1ncc(CN3CCCC3)cn1)CC2` [Example 1.055]: 5 to 50 nM; `CCc1cccc(CC)c1-n1nc2c(c1-c1cc(F)c(OC)c3[nH]ncc13)CN(c1ncc(C(F)(F)F)cn1)CC2` [Example 1.056]: < 5 nM; `CCc1cccc(CC)c1-n1nc2c(c1-c1ccc(Cl)c3[nH]ccc13)CN(c1cnccn1)CC2` [Example 1.057]: < 5 nM. Next, `CCc1cccc(CC)c1-n1nc2c(c1-c1ccc(Cl)c3[nH]ccc13)CN(c1cnc(C(F)(F)F)cn1)CC2` [Example 1.058]: < 5 nM; `CCc1cccc(CC)c1-n1nc2c(c1-c1cc(F)c(OC)c3[nH]ccc13)CN(c1ncc(C(F)(F)F)cn1)CC2` [Example 1.059]: < 5 nM.

With `Cc1cccc(C)c1-n1nc2c(c1-c1ccc(Cl)c3[nH]ccc13)CN(c1ncc(C(F)(F)F)cn1)CC2` [Example 1.060], the half-inhibitory concentration (IC50) was < 5 nM. For `CCc1cccc(CC)c1-n1nc2c(c1-c1cc(F)c(OC)c3[nH]ccc13)CN(c1ncc(C(F)(F)F)cc1F)CC2` [Example 1.061] the value was < 5 nM; for `CCc1cccc(CC)c1-n1nc2c(c1-c1c(F)cc(Cl)c3[nH]ccc13)CN(c1ncc(C3CC3)cc1F)CC2` [Example 1.062], < 5 nM; for `CCc1cccc(CC)c1-n1nc2c(c1-c1ccc(Cl)c3[nH]ccc13)CN(c1ncc(OC(C)C)cn1)CC2` [Example 1.063], < 5 nM. Next, `CCc1cccc(CC)c1-n1nc2c(c1-c1ccc(Cl)c3[nH]ccc13)CN(c1ncc(C(N)=O)cn1)CC2` [Example 1.064]: 50 to 500 nM; `CCc1cccc(CC)c1-n1nc2c(c1-c1ccc(Cl)c3[nH]ncc13)CN(c1ncc(C3CC3)cn1)CC2` [Example 1.065]: < 5 nM; `CCc1cccc(CC)c1-n1nc2c(c1-c1c(F)cc(CO)c3[nH]ccc13)CN(c1ncc(C3CC3)cn1)CC2` [Example 1.066]: < 5 nM. For `CCc1cccc(CC)c1-n1nc2c(c1-c1ccc(Cl)c3[nH]ccc13)CN(c1cnc(C3CC3)cn1)CC2` [Example 1.067] the value was 5 to 50 nM. On to `CCc1cccc(CC)c1-n1nc2c(c1-c1cc(F)c(CO)c3[nH]ccc13)CN(c1ncc(C(C)(C)O)cn1)CC2` [Example 1.068], for which the IC50 lay within 5 to 50 nM. Next, `CCc1cccc(CC)c1-n1nc2c(c1-c1ccc(Cl)c3[nH]cnc13)CN(c1ncc(C(F)(F)F)cn1)CC2` [Example 1.069]: < 5 nM.

With `CCc1cccc(CC)c1-n1nc2c(c1-c1c(F)cc(Cl)c3[nH]ccc13)CN(c1ncc(C3CC3)cn1)CC2` [Example 1.070], the concentration for half-maximal inhibition (IC50) was < 5 nM. Next, `CCc1cccc(CC)c1-n1nc2c(c1-c1ccc(Cl)c3[nH]ccc13)CN(c1ncc(C3CC3)cc1F)CC2` [Example 1.071]: < 5 nM. For `CCc1cccc(CC)c1-n1nc2c(c1-c1ccc(Cl)c3[nH]ccc13)CN(c1ncc(C)c(CO)n1)CC2` [Example 1.072] the value was 5 to 50 nM.
